The test system of one data set is HIVIIIB. In words: Antiviral Activity: anti-HIV activity in MT4 cells infected with HIVIIIB (MTT). In kind it is cell-based. Conditions: Human immunodeficiency virus 1, 120 h, MOI 0.003, 5 days, n=four duplicate determinations. On the procedure: (§1) The anti-HIV activity of the compound of the invention was determined in MF4 cells according to the following procedure: MT4 cells were infected with cell-free supernatant of HIVIIIB (previously frozen with known 50% tissue culture infectious dose (TCID50) at 0.003 multiplicity of infection (MOI)) for one hour. After one hour infection, cells were washed twice to remove residual viruses, resuspended in culture media and seeded into 96-well tissue culture plates at 1×10^4 cells per well with various half-log dilutions of compounds. Uninfected cells were included a toxicity and cell controls. RPMI 1640 media (GIBCO) with 10% fetal bovine serum was used as culture media. Various concentrations (50%, 25% and 12.5%) of human serum (SIGMA) were added to culture media resulting in final concentrations of 60%, 35% and 22.5% total serum. All assay plates were incubated in a 37° C. incubator for 5 days. The compound 3-[4,5-dimethylthiozol-2-yl]-2,5-diphenyltetrazolium bromide (MTT, SIGMA, 5 mg .mL stock in PBS) was then added to all wells at 25 μL per well and incubated for 4 hours. SDS (20%) with 0.02N HCl in water was added at 50 μL per well to lyse cells. Plates were incubated overnight for complete cell lysis and then read on a microtiter plate reader at 570/650 nm wavelengths to determine cell optical density (O.D.). Raw data was analysed for percent inhibition by the following formula: [formula]
The 50% effective concentration (EC50) was calculated by the median effect equation (Chou, 1975, Proc. Int. Cong. Pharmacol. 6th p. 619) to determine the efficacy of compound. The 50% cytotoxicity concentration (CTC50) was calculated using uninfected MT4 cells
Under these conditions, the data of Table 2 was obtained (n=four duplicate determinations).

Data set [1] in a line: Cytotoxicity in uninfected MT4 cells (MTT). In kind it is cell-based. Conditions: human, 5 days, n=four duplicate determinations, read-out: CTC50 (50% cytotoxicity concentration). The protocol:
as §1, with “RPMI 1640 media (GIBCO) with 10% fetal bovine serum was used as culture media. Various concentrations (50%, 25% and 12.5%) of human serum (SIGMA) were added to culture media resulting in final concentrations of 60%, 35% and 22.5% total serum.” left out, “The compound 3-[4,5-dimethylthiozol-2-yl]-2,5-diphenyltetrazolium bromide (MTT, SIGMA, 5 mg .mL stock in PBS) was then added to all wells at 25 μL per well and incubated for 4 hours.” left out
The 50% cytotoxicity concentration (CTC50) was calculated using uninfected MT4 cells

A further data set concerns the target HIV-1 protease (Human immunodeficiency virus type 1 group M subtype B, UniProt P04585). In words: Fluorogenic Assay for Screening Inhibitors of HIV Protease. Conditions: pH 4.5.

Method for HIV-1 protease: The inhibitory potency of the compounds of the invention were determined by the following method: The compound of the invention was dissolved in DMSO and a small aliquot further diluted with DMSO to 100 times the final concentration desired for testing. The reaction was carried out in a 6×50 mm tube in a total volume of 300 microliters. […] After addition of inhibitor, the reaction mixture was placed in the fluorometer cell holder and incubated at 30° C. for several minutes. The reaction was initiated by the addition of a small aliquot of cold HIV protease. The fluorescence intensity (excitation 340 nm, emission 490 nm) was recorded as a function of time. The reaction rate was determined for the first six to eight minutes. The observed rate was directly proportional to the moles of substrate cleaved per unit time. The percent inhibition was calculated according to the equation: 100×(1-(rate of inhibitor)/(rate in absence of inhibitor)). As a control, duplicate reactions were performed identically as above but without the addition of an inhibitor compound.

For the compound `Cc1cccc(C)c1N(C)CC(=O)N[C@@H](Cc1ccccc1)C[C@H](O)[C@H](Cc1ccccc1)NC(=O)O[C@H]1CO[C@H]2OCC[C@H]21` [Example 13, (2S,3S,5S)-5-(N-(2,6-Dimethyl-phenyl)-N-methyl-aminoacetyl)amino-2-((3R,3aS,6aR)-bis-tetrahydrofuran-3-yl-oxycarbonyl)amino-1,6-diphenyl-3-hydroxyhexane], the EC50 in the data set on HIVIIIB worked out at 2910 nM. Further, the CC50 at 120 h in data set [1] was found to be 18000 nM. The inhibition at 0.0024 µM against HIV-1 protease amounted to 50%.
Compound `Cc1cc(F)cc(C)c1OCC(=O)N[C@@H](Cc1ccccc1)C[C@H](O)[C@H](Cc1ccccc1)NC(=O)O[C@H]1CO[C@H]2OCC[C@H]21` [Example 14, (2S,3S,5S)-5-(2,6-Dimethyl-4-fluoro-phenoxyacetyl)amino-2-((3R,3aS,6aR)-bis-tetrahydrofuran-3-yl-oxycarbonyl)amino-1,6-diphenyl-3-hydroxyhexane] registered an EC50 in the data set with HIVIIIB of 268 nM. In addition, the CC50 at 120 h in data set [1] amounted to 64000 nM. At HIV-1 protease, this compound returned an inhibition at 0.0005 µM of 69%.
The like results for `Cc1cc(N(C)C)cc(C)c1OCC(=O)N[C@@H](Cc1ccccc1)C[C@H](O)[C@H](Cc1ccccc1)NC(=O)O[C@H]1CO[C@H]2OCC[C@H]21` [Example 15, 5-(2,6-Dimethyl-4-N, N-dimethylamino-phenoxyacetyl)amino-2-((3R,3aS,6aR)-bis-tetrahydrofuran-3-yl-oxycarbonyl)amino-1,6-diphenyl-3-hydroxyhexane] were, in that order, 160 nM, 46000 nM and 43%.
As to `Cc1ccc(N)c(C)c1OCC(=O)N[C@@H](Cc1ccccc1)C[C@H](O)[C@H](Cc1ccccc1)NC(=O)O[C@H]1CO[C@H]2OCC[C@H]21` [Example 16, (2S,3S,5S)-5-(2,6-Dimethyl-3-amino-phenoxyacetyl)amino-2-((3R,3aS,6aR)-bis-tetrahydrofuran-3-yl-oxycarbonyl)amino-1,6-diphenyl-3-hydroxyhexane], the EC50 in the data set with HIVIIIB was < 32 nM. Moreover, in data set [1], the CC50 at 120 h was > 100000 nM. The inhibition at 0.0005 µM on HIV-1 protease stood at 87%.
`Cc1cc(N)cc(C)c1SCC(=O)N[C@@H](Cc1ccccc1)C[C@H](O)[C@H](Cc1ccccc1)NC(=O)O[C@H]1CO[C@H]2OCC[C@H]21` [Example 17, 5-(2,6-Dimethyl-4-amino-phenylthioacetyl)amino-2-((3R,3aS,6aR)-bis-tetrahydrofuran-3-yl-oxycarbonyl)amino-1,6-diphenyl-3-hydroxybexane] came in with an EC50 in the data set with HIVIIIB of 5790 nM. Also, in data set [1], the CC50 at 120 h turned out to be 56000 nM. Further, at 0.001 µM the inhibition against HIV-1 protease was 50%.
`O=C(N[C@@H](Cc1ccccc1)C[C@H](O)[C@H](Cc1ccccc1)NC(=O)O[C@H]1CO[C@H]2OCC[C@H]21)O[C@H]1CO[C@H]2OCC[C@H]21` [Example 20, (2S,3S,5S)-2,5-Di-((3R,3aS,6aR)-bis-Tetrahydrofuran-3-yl-oxycarbonyl)amino-1,6-diphenyl-3-hydroxyhexane]: the 50% effective concentration (EC50) with HIVIIIB is 34 nM. Moreover, the CC50 at 120 h in data set [1] is > 100000 nM. Besides, the inhibition at 0.0005 µM against HIV-1 protease turned out to be 64%.
For `O=C(N[C@@H](Cc1ccccc1)[C@@H](O)C[C@H](Cc1ccccc1)NC(=O)O[C@@H]1CO[C@@H]2OCC[C@@H]21)O[C@H]1CO[C@H]2OCC[C@H]21` [Example 22, (2S,3S,5S)-2-((3R,3aS,6aR)-bis-Tetrahydrofuran-3-yl-oxycarbonyl)amino-5-((3S,3aR,6aS)-bis-Tetrahydrofuran-3-yl-oxycarbonyl)amino-1,6-diphenyl-3-hydroxyhexane], in the data set on HIVIIIB, a half-maximal response (EC50) required 107 nM. Further, in data set [1], the CC50 at 120 h was > 100000 nM. The compound further had an inhibition at 0.0005 µM against HIV-1 protease of 73%.
For `O=C(N[C@@H](Cc1ccccc1)C[C@H](O)[C@H](Cc1ccccc1)NC(=O)O[C@@H]1CO[C@@H]2OCC[C@@H]21)O[C@H]1CO[C@H]2OCC[C@H]21` [Example 23, (2S,3S,5S)-2-((3S,3aR,6aS)-bis-tetrahydrofuran-3-yl-oxycarbonyl)amino-5-((3R,3aS,6aR)-bis-tetrahydrofuran-3-yl-oxycarbonyl)amino-1,6-diphenyl-3-hydroxyhexane] the same measures were 891 nM, > 100000 nM and 39%.
For `Cc1cc2[nH]cnc2c(C)c1OCC(=O)N[C@@H](Cc1ccccc1)C[C@H](O)[C@H](Cc1ccccc1)NC(=O)O[C@H]1CO[C@H]2OCC[C@H]21` [Example 24, (2S,3S,5S)-5-(4,6-Dimethyl-benzimidazol-5-yloxy-acetyl)amino-2-((3R,3aS,6aR)-bis-tetrahydrofuran-3-yl-oxycarbonyl)amino-1,6-diphenyl-3-hydroxyhexane] the same measures were 114 nM, > 100000 nM and 80%.
The like results for `Cc1cc2[nH]c(=O)[nH]c2c(C)c1OCC(=O)N[C@@H](Cc1ccccc1)C[C@H](O)[C@H](Cc1ccccc1)NC(=O)O[C@H]1CO[C@H]2OCC[C@H]21` [Example 25, (2S,3S,5S)-5-(4,6-Dimethyl-benzimidazolinon-5-yloxy-acetyl)amino-2-((3R,3aS,6aR)-bis-tetrahydrofuran-3-yl-oxycarbonyl)amino-1,6-diphenyl-3-hydroxyhexane] were, in that order, 972 nM, > 100000 nM and 85%.
In the data set on HIVIIIB, `Cc1cc2ncoc2c(C)c1OCC(=O)N[C@@H](Cc1ccccc1)C[C@H](O)[C@H](Cc1ccccc1)NC(=O)O[C@H]1CO[C@H]2OCC[C@H]21` [Example 26, (2S,3S,5S)-5-(4,6-Dimethyl-benzoxazol-5-yloxy-acetyl)amino-2-((3R,3aS,6aR)-bis-tetrahydrofuran-3-yl-oxycarbonyl)amino-1,6-diphenyl-3-hydroxyhexane] returned an EC50 of 157 nM. In addition, in data set [1], the CC50 at 120 h was 29800 nM. Besides, on HIV-1 protease, testing at 0.0005 µM gave an inhibition of 80%.
The like results for `Cc1cccc(C)c1OCC(=O)N[C@@H](Cc1ccccc1)[C@@H](O)C[C@H](Cc1ccccc1)NC(=O)O[C@@H]1CCSC1(C)C` [Example 32, (2S,3S,5S)-2-(2,6-Dimethylphenoxyacetyl)amino-5-(3R-2,2-dimethyl-tetrahydrothienyloxycarbonyl)amino-1,6-diphenyl-3-hydroxyhexane] were, in that order, 1180 nM, > 100000 nM and 50%.
For `Cc1cccc(C)c1OCC(=O)N[C@@H](Cc1ccccc1)[C@@H](O)C[C@H](Cc1ccccc1)NC(=O)O[C@@H]1CCS(=O)(=O)C1(C)C` [Example 33, (2S,3S,5S)-2-(2,6-Dimethylphenoxyacetyl)amino-5-(3R-2,2-dimethyl-1,1-dioxy-tetrahydrothienyloxycarbonyl)amino-1,6-diphenyl-3-hydroxyhexane] the same measures were 442 nM, 18300 nM and 84%.
For `CC(C)c1nc(CN(C)C(=O)N[C@H](C(=O)N[C@@H](Cc2ccccc2)C[C@H](O)[C@H](Cc2ccccc2)NC(=O)OC2COC3OCCC23)C(C)C)cs1` (stereo partly drawn) [Example 34, (2S,3S,5S)-5-(N-(N-((N-Methyl-N-((2-isopropyl-4-thiazolyl)methyl)amino)carbonyl)-L-valinyl)amino)-2-((3R,3aS,6aR), (3S,3aR,6aS)-bis-tetrahydrofuran-3-yl-oxycarbonyl)amino-1,6-diphenyl-3-hydroxyhexane] the same measures were 9 nM, 56300 nM and 52%.
As to `O=C(N[C@@H](Cc1ccccc1)[C@@H](O)C[C@H](Cc1ccccc1)NC(=O)OC1COC2OCCC12)OCc1cncs1` (stereo partly drawn) [Example 35, (2S,3S,5S)-2-((5-Thiazolyl)methoxycarbonyl)amino-5-((3R,3aS,6aR), (3S,3aR,6aS)-bis-tetrahydrofuran-3-yl-oxycarbonyl)amino-1,6-diphenyl-3-hydroxyhexane], a half-maximal effect in the data set on HIVIIIB (EC50) was put at 428 nM. Moreover, the CC50 at 120 h in data set [1] is > 100000 nM. Besides, at HIV-1 protease, the inhibition at 0.0005 µM was 52%.
In the data set with HIVIIIB, `CC(C)c1nc(COC(=O)N[C@@H](C(=O)N[C@@H](Cc2ccccc2)C[C@H](O)[C@H](Cc2ccccc2)NC(=O)OC2COC3OCCC23)C(C)C)cs1` (stereo partly drawn) [Example 36] came in with an EC50 of 30 nM. Moreover, in data set [1], the CC50 at 120 h amounted to 27800 nM. At HIV-1 protease, this compound had an inhibition at 0.0005 µM of 66%.

These data come from patent US5905068A, “Retroviral protease inhibiting compounds” (Abbott Laboratories, priority 1996, dated 1999).
